Results on nine molecules are retold here after ChEMBL document CHEMBL1150650, “Bioactive constituents from Iryanthera megistophylla” (2002).

For assay [1], the system named is Staphylococcus aureus. Put plainly: Antimicrobial activity against Staphylococcus aureus at 200 ug/mL after 24 hrs by disk diffusion method. Format: functional, organism-based. (Agar diffusion results depend on both activity and mobility in agar.)
Assay [2] addresses Acetylcholinesterase (Homo sapiens) (UniProt P22303). The assay is described as follows: Inhibition of acetylcholinesterase-mediated hydrolysis of acetylcholine at 0.8 mg/mL relative to galanthamine.
Assay [3] relates to Human alphaherpesvirus 1. The assay is described as follows: Antiviral activity against HSV1 in african green monkey Vero cells at 320 ug/mL. Format: functional, organism-based.
Assay [4] relates to Potato virus X. Put plainly: Antiviral activity against Potato virus X in half leaf of Chenopodium quinoa at 9.3 mg/mL after 10 days. Format: functional. To be noted: 240 h.
For assay [5], the system named is Candida albicans. Put plainly: Antimicrobial activity against Candida albicans at 300 ug/mL after 24 hrs by disk diffusion method. Format: functional, organism-based.
Assay [6] has as its system Candida albicans. Put plainly: Antimicrobial activity against Candida albicans after 24 hrs by disk diffusion method. Format: functional.
For assay [7], the system named is Staphylococcus aureus. The assay is described as follows: Antimicrobial activity against Staphylococcus aureus after 24 hrs by disk diffusion method. Format: functional.

Molecules are shown by their SMILES. ≈ marks a conversion by molar mass, not a printed value. Calls of active or inactive are those of the source. No cut-off for these calls is given here.

Acetylcholinesterase (Homo sapiens), sequence (P22303 whole entry): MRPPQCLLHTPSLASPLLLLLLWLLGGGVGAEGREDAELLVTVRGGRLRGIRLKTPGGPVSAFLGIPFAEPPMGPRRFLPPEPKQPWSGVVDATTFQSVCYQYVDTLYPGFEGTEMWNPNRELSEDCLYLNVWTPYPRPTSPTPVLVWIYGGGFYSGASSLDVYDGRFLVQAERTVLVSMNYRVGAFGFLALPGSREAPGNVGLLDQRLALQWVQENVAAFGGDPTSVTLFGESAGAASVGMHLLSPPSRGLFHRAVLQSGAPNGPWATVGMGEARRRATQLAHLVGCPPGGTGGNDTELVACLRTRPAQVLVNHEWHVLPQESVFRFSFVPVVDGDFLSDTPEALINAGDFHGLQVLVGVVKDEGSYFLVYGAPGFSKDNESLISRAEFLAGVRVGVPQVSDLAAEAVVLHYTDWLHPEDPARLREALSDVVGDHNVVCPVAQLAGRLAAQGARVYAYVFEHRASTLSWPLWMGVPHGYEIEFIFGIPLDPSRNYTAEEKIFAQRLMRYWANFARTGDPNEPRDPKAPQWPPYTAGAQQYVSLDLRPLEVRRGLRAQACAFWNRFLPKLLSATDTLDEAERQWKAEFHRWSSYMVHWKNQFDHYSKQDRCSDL

In general, inhibition refers to the share of the control response that was lost under treatment. In the case of `COc1ccc(-c2c(C)c(C)cc3ccc(O)cc23)cc1`, the MIC entry in assay [1], in assay [3] and in assay [5] was “inactive” each time. In assay [2], the inhibition came out at 67.6%. Moreover, in assay [4], the inhibition at 9300 µg/mL amounted to 36%.
With `O=C1C[C@H](c2ccc(O)c(O)c2)c2c(cc(O)c3c2O[C@H](c2ccc(O)c(O)c2)[C@H](O)[C@H]3c2c(O)cc(O)c3c2O[C@H](c2ccc(O)c(O)c2)[C@H](O)C3)O1` [CINCHONAIN IIA], the MIC entry in assay [1] and in assay [3] was “inactive” in each case. Further, the MIC in assay [6] is 150 µg/mL (≈ 203 µM). Besides, in assay [4], the inhibition at 9300 µg/mL was 100%.
Turning to `C[C@@H]1OC(=O)[C@@H](CCCCCCCCCCCCCCCCCc2ccccc2)[C@@H]1O` [GRANDINOLIDE], the MIC result in assay [1], in assay [3] and in assay [5] was “inactive” each time. This molecule also registered an inhibition at 9300 µg/mL in assay [4] of 30%.
Regarding `COc1ccc(CCC(=O)c2c(OC)cc(O)c([C@@H](c3ccc(O)cc3)[C@@H](C)[C@H](C)Cc3ccc(O)cc3)c2O)cc1` [IRYANTHERIN K], the inhibition in assay [2] stood at 77.4%. In assay [4], this molecule had an inhibition at 9300 µg/mL of 89%. In assay [7], the MIC is 50 µg/mL (≈ 87.6 µM). For the same molecule, in assay [5], the MIC entry was “inactive”.
Consider `COc1ccc(CCC(=O)c2c(OC)cc(O)c([C@H](c3ccc(O)cc3)[C@@H](C)[C@H](C)Cc3ccc(O)cc3)c2O)cc1` [IRYANTHERIN L], for which the MIC result in assay [1], in assay [3] and in assay [5] was “inactive” each time. In assay [4], this molecule displayed an inhibition at 9300 µg/mL of 67%.
On to `CCCCCCCC/C=C\CCCCCCCCCCCCCCCC[C@H]1C(=O)O[C@H](C)[C@@H]1O` [MEGISLACTONE], for which the MIC result in assay [1], in assay [3] and in assay [5] was “inactive” in each case. For the same molecule, in assay [4], at 9300 µg/mL the inhibition was 20%.
For the molecule `Oc1cc(O)c2c(c1)O[C@H](c1ccc(O)c(O)c1)[C@H](O)[C@H]2c1c(O)cc(O)c2c1O[C@H](c1ccc(O)c(O)c1)[C@H](O)C2` [PROCYANIDIN B2], the figures for the MIC in assay [6] and in assay [7] were 150 µg/mL (≈ 259 µM) and 100 µg/mL (≈ 173 µM), respectively. This molecule came in with an inhibition at 9300 µg/mL in assay [4] of 98%.
`O=c1c(O)c(-c2ccc(O)c(O)c2)oc2cc(O)cc(O)c12` [QUERCETIN]: the inhibition at 9300 µg/mL in assay [4] was determined as 100%.
For the molecule `NC(=O)c1ncn([C@@H]2O[C@H](CO)[C@@H](O)[C@H]2O)n1` [RIBAVIRIN], in assay [4], the inhibition at 9300 µg/mL is 94%.
